How the values were obtained:
Canis familiaris = assay: Liver blood flow in Beagle dog at 0.125 mg/kg, iv and 0.5 mg/kg, po; type: ADME, organism-based, Canis lupus familiaris; conditions: in vivo
[1] = Volume of distribution at steady state in Beagle dog at 0.125 mg/kg, iv and 0.5 mg/kg, po; type: ADME, organism-based, Canis lupus familiaris; conditions: in vivo, read-out: Vdss
[2] = Blood clearance in cynomolgus monkey at 0.125 mg/kg, iv and 0.5 mg/kg, po; type: ADME, organism-based, Macaca fascicularis
Cynomolgus monkey [3] = assay: Liver blood flow in cynomolgus monkey at 0.125 mg/kg, iv and 0.5 mg/kg, po; type: ADME, organism-based, Macaca fascicularis; conditions: in vivo
[4] = Volume of distribution at steady state in cynomolgus monkey at 0.125 mg/kg, iv and 0.5 mg/kg, po; type: ADME, organism-based, Macaca fascicularis; conditions: in vivo, read-out: Vdss
[5] = Oral bioavailability in cynomolgus monkey at 0.5 mg/kg; type: ADME, organism-based, Macaca fascicularis; conditions: in vivo
[6] = Cmax in cynomolgus monkey at 0.5 mg/kg, po; type: ADME, organism-based, Macaca fascicularis; parameters: dose 0.5 mg/kg, route oral; conditions: in vivo
[7] = Half life in cynomolgus monkey at 0.5 mg/kg, po; type: ADME, organism-based, Macaca fascicularis; parameters: dose 0.5 mg/kg, route oral; conditions: in vivo
[8] = molecular target: T1, Nuclear receptor subfamily 1 group I member 2 (Homo sapiens, UniProt O75469); assay: Activation of human PXR
T1 sequence (O75469 whole entry): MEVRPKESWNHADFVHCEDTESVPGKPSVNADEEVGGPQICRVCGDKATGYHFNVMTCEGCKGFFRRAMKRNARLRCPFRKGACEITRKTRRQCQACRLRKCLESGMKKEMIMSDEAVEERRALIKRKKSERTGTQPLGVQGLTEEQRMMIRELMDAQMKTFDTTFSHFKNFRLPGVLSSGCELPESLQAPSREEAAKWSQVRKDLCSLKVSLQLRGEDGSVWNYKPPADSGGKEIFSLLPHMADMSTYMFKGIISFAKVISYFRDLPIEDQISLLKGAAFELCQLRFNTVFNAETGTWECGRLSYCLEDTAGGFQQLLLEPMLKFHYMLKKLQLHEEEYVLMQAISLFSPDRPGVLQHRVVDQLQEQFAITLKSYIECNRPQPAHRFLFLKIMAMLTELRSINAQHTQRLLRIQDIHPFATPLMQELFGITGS

[9] = Plasma protein binding in dog at 1 ug/ml after 6 hrs by equilibrium dialysis method; type: ADME, cell-free, Canis lupus familiaris; conditions: read-out: PPB (converted)
Cynomolgus monkey [10] = assay: Cardiotoxicity in conscious cynomolgus monkey up to 2.5 mg/kg, po; type: toxicity, organism-based, Macaca fascicularis; parameters: dose 2.5 mg/kg, route oral; conditions: in vivo
Homo sapiens = assay: Toxicity in human at 0.25 to 6 mg/kg administered as single dose; type: organism-based; parameters: dose 0.25-6 mg/kg; conditions: in vivo
Glutamate receptor 2 = Glutamate receptor 2 (Homo sapiens, UniProt P42262); assay: Activation of human recombinant GluR2 flip isoform expressed in HEK293 cells assessed as increase of glutamate-induced inward current by whole cell voltage-clamp electrophysiology; type: cell-based
Blood = assay: Drug level in po dosed Lister Hooded rat blood; type: ADME, organism-based; conditions: in vivo
Cytochrome P450 3A4 = Cytochrome P450 3A4 (Homo sapiens, UniProt P08684)
Cytochrome P450 3A4, sequence (P08684 whole entry): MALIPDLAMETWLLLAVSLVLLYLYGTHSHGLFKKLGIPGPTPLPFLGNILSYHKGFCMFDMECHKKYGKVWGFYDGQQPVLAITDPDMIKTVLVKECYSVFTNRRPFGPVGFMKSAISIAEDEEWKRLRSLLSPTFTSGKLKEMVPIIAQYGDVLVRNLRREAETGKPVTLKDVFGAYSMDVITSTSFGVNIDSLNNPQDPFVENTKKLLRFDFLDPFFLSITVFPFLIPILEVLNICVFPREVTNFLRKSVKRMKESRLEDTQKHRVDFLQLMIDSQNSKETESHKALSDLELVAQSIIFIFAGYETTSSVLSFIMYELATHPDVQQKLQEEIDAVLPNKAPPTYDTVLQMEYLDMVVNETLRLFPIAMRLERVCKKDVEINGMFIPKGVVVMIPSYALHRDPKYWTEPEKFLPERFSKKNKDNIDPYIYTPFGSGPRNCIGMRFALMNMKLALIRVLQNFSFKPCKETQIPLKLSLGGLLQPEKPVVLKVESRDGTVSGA
Description: Inhibition of human CYP3A4 after 10 mins

Glutamate receptor 2, sequence (P42262 whole entry, canonical isoform): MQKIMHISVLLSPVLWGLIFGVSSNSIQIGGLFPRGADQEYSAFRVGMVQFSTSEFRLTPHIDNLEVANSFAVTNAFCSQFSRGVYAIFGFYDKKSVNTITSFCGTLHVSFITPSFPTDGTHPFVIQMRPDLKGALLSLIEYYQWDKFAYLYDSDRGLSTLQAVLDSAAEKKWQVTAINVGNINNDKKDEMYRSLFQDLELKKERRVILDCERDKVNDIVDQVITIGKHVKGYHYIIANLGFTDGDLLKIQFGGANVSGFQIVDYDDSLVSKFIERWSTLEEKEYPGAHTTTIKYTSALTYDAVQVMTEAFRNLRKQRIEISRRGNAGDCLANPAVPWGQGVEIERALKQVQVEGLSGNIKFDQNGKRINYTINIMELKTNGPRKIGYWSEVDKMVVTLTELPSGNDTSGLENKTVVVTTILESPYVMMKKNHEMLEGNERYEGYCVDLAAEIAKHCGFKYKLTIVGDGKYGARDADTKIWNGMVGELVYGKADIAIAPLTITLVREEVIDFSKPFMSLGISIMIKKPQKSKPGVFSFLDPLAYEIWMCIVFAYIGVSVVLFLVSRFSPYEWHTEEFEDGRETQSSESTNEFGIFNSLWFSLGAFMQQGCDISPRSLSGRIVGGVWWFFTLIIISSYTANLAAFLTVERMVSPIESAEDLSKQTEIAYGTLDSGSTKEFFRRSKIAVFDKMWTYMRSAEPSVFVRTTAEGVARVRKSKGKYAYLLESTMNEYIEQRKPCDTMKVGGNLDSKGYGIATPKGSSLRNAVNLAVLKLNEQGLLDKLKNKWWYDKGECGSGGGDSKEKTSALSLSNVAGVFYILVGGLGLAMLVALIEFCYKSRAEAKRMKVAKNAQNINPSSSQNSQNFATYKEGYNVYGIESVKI

Compound `CC(C)S(=O)(=O)N[C@H]1Cc2ccc(-c3ccc(F)nc3)cc2C1` [GSK-729327] has an LBF (Canis familiaris) of 11%, a Vd [1] of 4.8 L/kg and a clearance [2] of 1.4 mL/min/kg. For the same compound, the LBF (Cynomolgus monkey [3]) was 3%, the Vd [4] was 1.8 L/kg and the bioavailability [5] was 51%. The Cmax [6] was 115 ng/mL, the half-life [7] was 24 h and the Activity [8] was “Not Active”. The fraction unbound at 6 h, 1 ug/ml [9] was 0.205, the Activity (Cynomolgus monkey [10]) was “Non-toxic” and the Activity (Homo sapiens) was “Non-toxic”. The Activity (Glutamate receptor 2) was “Dose-dependent effect”, the Drug uptake (Blood) was 81 ng/mL and the IC50 (Cytochrome P450 3A4) was greater than 10 µM. For the same compound, the IC50 (Liver microsomes) was less than 0.7 µM.
